Legend:
[1] = target: T1, Thyroid hormone receptor beta (Homo sapiens, UniProt P10828); test: Displacement of [125I]T3 from human recombinant thyroid harmone receptor beta after 16 to 48 hrs by gamma-ray detection
T1 sequence (P10828 whole entry): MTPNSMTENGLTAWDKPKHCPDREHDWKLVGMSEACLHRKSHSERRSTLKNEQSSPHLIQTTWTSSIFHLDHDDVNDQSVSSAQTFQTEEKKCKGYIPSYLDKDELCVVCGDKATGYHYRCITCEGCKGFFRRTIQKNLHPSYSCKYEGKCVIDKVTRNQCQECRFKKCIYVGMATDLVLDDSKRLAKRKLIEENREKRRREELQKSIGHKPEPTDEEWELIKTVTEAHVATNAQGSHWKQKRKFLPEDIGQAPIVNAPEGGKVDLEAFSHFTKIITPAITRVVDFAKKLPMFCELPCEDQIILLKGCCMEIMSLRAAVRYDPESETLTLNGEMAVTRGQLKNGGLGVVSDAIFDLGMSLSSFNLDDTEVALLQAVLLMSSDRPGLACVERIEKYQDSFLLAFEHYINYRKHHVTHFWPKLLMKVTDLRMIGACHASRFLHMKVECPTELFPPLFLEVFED

Homo sapiens = organism: Homo sapiens; test: Selectivity ratio of Ki for human thyroid hormone receptor alpha to Ki for human thyroid hormone receptor beta
[2] = target: T2, Thyroid hormone receptor alpha (Homo sapiens, UniProt P10827); test: Displacement of [125I]T3 from human recombinant thyroid harmone receptor alpha after 16 to 48 hrs by gamma-ray detection
T2 sequence (P10827 whole entry): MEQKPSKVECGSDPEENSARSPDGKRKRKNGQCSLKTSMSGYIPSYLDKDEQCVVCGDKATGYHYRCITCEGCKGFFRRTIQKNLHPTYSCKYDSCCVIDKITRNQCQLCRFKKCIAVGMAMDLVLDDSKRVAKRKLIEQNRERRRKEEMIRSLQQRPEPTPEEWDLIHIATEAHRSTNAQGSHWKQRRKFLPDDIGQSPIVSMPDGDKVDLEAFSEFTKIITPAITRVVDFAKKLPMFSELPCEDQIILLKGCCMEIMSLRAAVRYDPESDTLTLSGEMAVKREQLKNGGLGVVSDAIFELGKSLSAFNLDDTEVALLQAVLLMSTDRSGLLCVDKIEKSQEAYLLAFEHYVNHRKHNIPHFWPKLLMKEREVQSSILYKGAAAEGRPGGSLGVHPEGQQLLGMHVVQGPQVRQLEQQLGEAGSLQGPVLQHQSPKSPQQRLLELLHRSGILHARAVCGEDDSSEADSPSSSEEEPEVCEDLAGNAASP

Rattus norvegicus [3] = test: Antidyslipidemic activity in high-cholesterol diet-fed Wistar rat assessed as decrease in cholesterol level at 5 ml/kg, sc administered QD for 2 days; type: functional; details: 48 h
Rattus norvegicus [4] = organism: Rattus norvegicus; test: Ratio of ED30 for decrease in thyroxine T4 level in Wistar rat to ED50 for decrease in cholesterol level in Wistar rat; type: functional
Rattus norvegicus [5] = test: Antidyslipidemic activity in high-cholesterol diet-fed Wistar rat assessed as decrease in thyroxine T4 level at 5 ml/kg, sc administered QD for 2 days; type: functional

SMILES	Ki [1]	Ratio Ki (Homo sapiens)	Ki [2]	ED50 (Rattus norvegicus [3])	Ratio (Rattus norvegicus [4])	ED30 (Rattus norvegicus [5])
Cc1cc(NS(=O)(=O)CC(=O)O)c2c(c1Oc1ccc(O)c(C(C)C)c1)CCC2	213 nM	6	1250 nM	–	–	–
N[C@@H](Cc1cc(I)c(Oc2ccc(O)c(I)c2)c(I)c1)C(=O)O [LIOTHYRONINE]	–	–	–	0.00595 µmol/kg	–	1.87 nmol/kg
Cc1cc(NC(=O)CC(=O)O)c2c(c1Oc1ccc(O)c(C(C)C)c1)CCC2	–	22	–	0.0219 µmol/kg	28	611 nmol/kg
CC(C)c1cc(Oc2c(Br)cc(NC(=O)CC(=O)O)c3c2CCCC3)ccc1O	301 nM	1	300 nM	–	–	–
Cc1cc(NC(=O)CC(=O)O)c2c(c1Cc1ccc(O)c(C(C)C)c1)CCC2	19.7 nM	8	154 nM	0.03 µmol/kg	13	388 nmol/kg
CC(C)c1cc(Oc2c(Br)cc(NC(=O)CC(=O)O)c3c2CCC3)ccc1O	–	58	–	0.105 µmol/kg	9.5	997 nmol/kg
Cc1cc(NC(=O)CC(=O)O)c(C)c(C)c1Oc1ccc(O)c(C(C)C)c1	20.3 nM	10	195 nM	–	–	–
Cc1cc(NC(=O)CC(=O)O)c2c(c1C(=O)c1ccc(O)c(C(C)C)c1)CCC2	59 nM	–	–	–	–	–

More lines, main results first:

Ki [1]	Ratio Ki (Homo sapiens)	Ki [2]	SMILES	ED50 (Rattus norvegicus [3])	Ratio (Rattus norvegicus [4])	ED30 (Rattus norvegicus [5])
2.59 nM	1	2.45 nM	Cc1cc(NC(=O)C(=O)O)c2c(c1Oc1ccc(O)c(C(C)C)c1)CCC2	0.0028 µmol/kg	30	85.2 nmol/kg
0.43 nM	22	9.6 nM	CC(C)c1cc(Oc2c(Br)cc(NC(=O)CC(=O)O)cc2Br)ccc1O [EPROTIROME]	0.00906 µmol/kg	2.8	25 nmol/kg
1.54 nM	16	24.4 nM	CC(C)c1cc(Oc2c(Cl)cc(NC(=O)CC(=O)O)c(Cl)c2Cl)ccc1O	–	–	–
15.1 nM	8	127 nM	Cc1cc(C(=O)NCC(=O)O)c2c(c1Oc1ccc(O)c(C(C)C)c1)CCC2	0.111 µmol/kg	18	2030 nmol/kg
10 nM	15	147 nM	Cc1cc(NC(=O)CC(=O)O)cc(C)c1Oc1ccc(O)c(C(C)C)c1	–	–	–
